One molecule from patent US20240426807A1, “SCREENING SYSTEM” (Givaudan SA, priority 2021, published 2024) can be followed below.

The data set has as its target T1, OR5AN1 (Homo sapiens, UniProt Q8NGI8).
T1 construct: expressed in transfected cells
T1 sequence (Q8NGI8 1-311): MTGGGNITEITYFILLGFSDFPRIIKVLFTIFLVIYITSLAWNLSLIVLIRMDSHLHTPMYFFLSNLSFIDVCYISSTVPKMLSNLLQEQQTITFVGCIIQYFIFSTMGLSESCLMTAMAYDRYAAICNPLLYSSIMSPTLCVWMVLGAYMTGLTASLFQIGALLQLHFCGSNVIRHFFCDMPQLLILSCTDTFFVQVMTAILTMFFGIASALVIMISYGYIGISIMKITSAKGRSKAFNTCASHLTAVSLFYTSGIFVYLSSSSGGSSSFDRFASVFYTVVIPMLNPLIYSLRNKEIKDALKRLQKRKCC
As to the kind of experiment: Ligand-induced blasticidin resistance, OR5AN1 cells (pGL4.29-CRE-BLAST-OR). Type of data set: cell-based. An excerpt: To generate a vector allowing positive selection of cell clones with a functional expression of a specific OR gene, a blasticidin resistance gene was placed downstream of SEQ ID NO: 4. The pGL4.29-CRE-Puro-OR vector generated as described in Example 1 was digested with BgIII and FseI to remove the comprised basal promoter and the complete puromycin resistance gene. The removed basal promoter sequence was amplified with the primers […] (SEQ ID NO: 28), […] (SEQ ID NO: 63), and the blasticidin S deaminase (bsd, SEQ ID NO: 64) encoding sequence was amplified by PCR using the primers […] (SEQ ID NO: 66) […] (SEQ ID NO: 67). The two overlapping PCR products were joined by fusion PCR using primers […] (SEQ ID NO: 28) and […] (SEQ ID NO: 68). The resulting DNA fragment was digested with BgIII/FseI and ligated into the digested vector to generate pGL4.29-CRE-Blast-OR.
This vector was used to generate stable cell lines as described in Example 1.
Stable clones containing a stable insertion of the pGL4.29-CRE-BLAST-OR construct with the receptor OR5AN1 (NCBI Genbank Gene ID: 390195) were then plated at a density of 3000 cells/per well in 100 μl Dubelcco's Modified Eagle medium (DMEM) in polyethyleneimide-coated, white 96 well microtiter plates with a transparent bottom. After cells were allowed to adhere for 24 h, 50 μl of medium containing different odorants (musk ketone or ethyl vanillin at 40 μM) was added to each well resulting in an odorant concentration of 13.3 μM. 6 h after odorant addition, 50 μl of medium containing blasticidin was added to reach a final concentration of 0.5-256 μg/ml in 10 two-fold dilution steps (day 1 of selection). This step further diluted the odorant to 10 μM. On day 4 of the selection (72 h after blasticidin addition), medium from each well was removed completely, 100 μl PrestoBlue® cell viability reagent (ThermoFisher Scientific, Catalog No: 14200-083) diluted in phosphate buffered saline containing 1 mg/ml glucose was added to each well and cells were incubated at 37° C. until a color change was visible in the wells containing no blasticidin. The fluorescence was determined at 560 excitation and 590 nm emission to assess relative cell metabolic activity, which is the net result of cell growth and cell killing in presence of the different blasticidin concentrations. The result was expressed as % viability relative to controls with no cells (0%) and cells treated with olfactory ligand only (100%).

Molecules are shown by their SMILES. Entries after “also recorded” stand apart in the source; their conditions may differ.

Turning to `CC(=O)c1c(C)c([N+](=O)[O-])c(C(C)(C)C)c([N+](=O)[O-])c1C` [musk ketone], under “HEK293T OR5AN1, odorant 10 μM, blasticidin 0.5-256 μg/ml, PrestoBlue viability day 4”, the “blasticidin resistance in presence of odorant versus solvent control” value is reported as “increased resistance to blasticidin; also recorded: Enhanced blasticidin resistance”. The “difference in viability with versus without ligand” value (blasticidin at 32 μM (so in the source)) is listed as approximately 10 fold. In addition, the “surviving cells (viability) in presence of ligand” value (blasticidin at 32 μM (so in the source), odorant 10 μM, relative to no cells (0%) and ligand only (100%)) amounted to 75%. In addition, the “increase of blasticidin concentration reducing viability by 50% (EC50) in presence of ligand” value (versus absence of ligand) is more than 50 fold.
